What was measured:
[1] = biological target: LBD of chemoreceptor R10 (WP_028866120.1); assay: ITC binding to R10-LBD; set-up: species or system Psychromonas aquimarina; conditions: 20 °C, Nb = no binding
Protocol: (§1) Plasmids for the overexpression of the different proteins were transformed into E. coli BL21(DE3). The resulting strains were grown under continuous stirring (200 rpm) at 30 °C in 2-L Erlenmeyer flasks containing 500 mL of LB medium supplemented with 50 μg/mL kanamycin. At an OD660 of 0.5, protein expression was induced by the addition of 0.1 mM isopropyl β-D-1-thiogalactopyranoside. Growth was continued at 16 °C overnight prior to cell harvesting by centrifugation at 10,000 × g for 20 min. Cell pellets were resuspended in buffer A (Additional file 2: Table S4) and subsequently broken by French press treatment at 62.5 lb/in^2. After centrifugation at 20,000 × g for 30 min, the supernatants were loaded onto 5-mL HisTrap HP columns (Amersham Biosciences) equilibrated with buffer A, and the proteins were eluted with a linear gradient of buffer B (Additional file 2: Table S4). All proteins contain a hexa-histidine tag at the N-terminal extension (Additional file 2: Table S3) and were purified at 4 °C. The purified proteins were dialyzed overnight into the corresponding analysis buffers (Additional file 2: Table S4) for immediate analysis.
(§2) All experiments were conducted on a VP microcalorimeter (Microcal, MA) at 15 °C for PacP-LBD and at 20 °C for the remaining proteins. Proteins were dialyzed into the analysis buffers specified in Additional file 2: Table S4, placed into the sample cell and titrated with aliquots of ligand solutions (1 to 10 mM) freshly prepared in dialysis buffer. The mean enthalpies measured from the injection of the ligands into the analysis buffer were subtracted from the raw titration data prior to data analysis with the MicroCal version of ORIGIN. The data were fitted with the “One binding site model” of ORIGIN.

[2] = tested on: P. atrosepticum SCRI1043 pacP mutant (MpacP); assay: Quantitative capillary chemotaxis assay, pacP mutant; assay type: cell-based, Pectobacterium atrosepticum; conditions: 1 mM ligand
Excerpt: A mutant defective in ECA_RS12390 was constructed by homologous recombination using a derivative plasmid of the suicide vector pKNG101. Briefly, a 0.5-kb fragment corresponding to the region encoding the LBD of ECA_RS12390 was amplified by the primers specified in Additional file 2: Table S2 and cloned into pGEM®-T. The resulting plasmid pGEM::ECA_RS12390 was digested with XmaI, and the 0.5-kb insert was cloned into the same site at pKNG101 to generate pKNG101::ECA_RS12390. This plasmid was subsequently transformed into P. atrosepticum SRCI1043 via biparental conjugation using E. coli β2163. All the plasmids were verified by PCR and sequencing. The pETb(+) derivatives encoding the LBD of the different receptors analyzed in this study (Table 1) were purchased from GeneScript. Plasmid pBBR-ECA_RS12390 was constructed by amplifying the pacP gene using the primers detailed in Additional file 2: Table S2 and cloning of the PCR product into the NdeI/BamHI sites of pBBR1MCS2_START. The sequences of the proteins analyzed in this study are provided in Additional file 2: Table S3. The ECA_RS12390 nucleotide sequence is available in the published genome of P. atrosepticum SCRI1043 [60].
(§3) Overnight cultures of P. atrosepticum SCRI1043 were grown at 30 °C in minimal medium. At an OD660 of 0.4–0.45, the cultures were washed twice with chemotaxis buffer (50 mM K2HPO4/KH2PO4, 20 μM EDTA, 0.05% (v/v) glycerol, pH 7.0) and diluted to an OD660 of 0.1 in the same buffer. Subsequently, 230 μL of the resulting bacterial suspension was placed into the wells of 96-well plates. One-microliter capillary tubes (P1424, Microcaps; Drummond Scientific) were heat-sealed at one end and filled with either chemotaxis buffer (negative control) or chemotaxis buffer containing PacP ligands at a concentration of 1 mM. The capillaries were immersed in the bacterial suspensions at their open ends. After 30 min at room temperature, the capillaries were removed from the bacterial suspensions, rinsed with sterile water, and the contents were expelled into 1 mL of 40 mM K2HPO4, 15 mM KH2PO4. Serial dilutions were plated onto minimal medium supplemented with 15 mM glucose as the carbon source. The number of colony-forming units was determined after 36 h of incubation at 30 °C. In all the cases, the data were corrected with the number of cells that swam into the buffer-containing capillaries.

Bacillus subtilis = tested on: Bacillus subtilis; set-up: method as in PMID 119030, PMID 500565; conditions: cited from earlier work
[3] = tested on: Bdellovibrio bacteriovorus; set-up: method as in PMID 119030, PMID 500565; conditions: cited from earlier work
[4] = tested on: P. atrosepticum SCRI1043 ΔcheA; assay: Quantitative capillary chemotaxis assay, cheA mutant; assay type: cell-based, Pectobacterium atrosepticum; conditions: 1 mM ligand
Protocol: as §3
Fig. S2) Quantitative capillary chemotaxis assays of different P. atrosepticum SCRI1043 strains to 1 mM Glycerol 3-phosphate (A) and 3-phosphoglycerate (B). […]

[5] = biological target: LBD of chemoreceptor R5 (WP_028444678.1); assay: ITC binding to R5-LBD; set-up: species or system Chitinimonas koreensis; conditions: 20 °C, Nb = no binding
Protocol: as §1, §2

[6] = biological target: LBD of chemoreceptor R6 (WP_174062248.1); assay: ITC binding to R6-LBD; set-up: species or system Agrobacterium larrymoorei; conditions: 20 °C, Nb = no binding
Protocol: as §1, §2

[7] = biological target: LBD of chemoreceptor R4 (WP_158281851.1) (Rivihabitans pingtungensis, UniProt A0A318KJN4); assay: ITC binding to R4-LBD; set-up: species or system Rivicola pingtungensis; conditions: 20 °C, Nb = no binding
Chain of LBD of chemoreceptor R4 (WP_158281851.1) (A0A318KJN4 entry or part of it): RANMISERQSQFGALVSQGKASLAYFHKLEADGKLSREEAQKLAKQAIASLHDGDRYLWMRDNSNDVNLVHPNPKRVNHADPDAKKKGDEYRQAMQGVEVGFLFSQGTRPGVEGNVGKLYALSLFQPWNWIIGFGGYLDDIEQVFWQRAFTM
Protocol: as §1, §2

[8] = biological target: LBD of chemoreceptor R7 (WP_019915375.1); assay: ITC binding to R7-LBD; set-up: species or system Methyloversatilis discipulorum; conditions: 20 °C, Nb = no binding
Chain of LBD of chemoreceptor R7 (WP_019915375.1) (as listed by the source): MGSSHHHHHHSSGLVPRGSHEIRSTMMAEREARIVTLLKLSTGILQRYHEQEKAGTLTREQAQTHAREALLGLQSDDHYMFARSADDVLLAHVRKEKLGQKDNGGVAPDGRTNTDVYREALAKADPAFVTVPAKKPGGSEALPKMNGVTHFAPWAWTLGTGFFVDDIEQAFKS
Protocol: as §1, §2

| Compound | KD [1] | chemotaxis (capillary assay) [2] | chemotaxis (Bacillus subtilis) | chemotaxis [3] | chemotaxis (capillary assay) [4] | KD [5] | KD [6] | Kd [7] | KD [8] | KD ([8]; listed as Glycerol 3-P) |
| --- | --- | --- | --- | --- | --- | --- | --- | --- | --- | --- |
| O=C(O)[C@@H](O)COP(=O)(O)O [3-phosphoglycerate] | Nb | Only glycerol 2-phosphate served as an attractant for the mutant | weak chemotaxis | weak chemotaxis | failed to respond | Nb | Nb | 926 ± 8 µM | Nb |  |
| O=P(O)(O)OCC(O)CO (stereo not shown) [glycerol 3-phosphate] | Nb | Only glycerol 2-phosphate served as an attractant for the mutant | weak chemotaxis | weak chemotaxis | failed to respond | Nb | Nb | 7 ± 0.2 µM | bound | Nb |
